Data reported in the NIST ThermoML archive (doi:10.1016/j.jct.2016.10.002).
Numbers after ± are expanded uncertainties.

Columns and labels:
[1] = refractive index (Na D-line) (dimensionless); conditions: 303.15 K; 101.33 kPa; Liquid; Standard Abbe refractometry
[2] = refractive index (Na D-line) (dimensionless); xn = mol fraction of the nth substance listed; conditions: 303.15 K, 101 kPa, Liquid, Standard Abbe refractometry

refractive index ([2]; x1 = 0.333)	SMILES	further results
–	O [water]	refractive index [1]: 1.332 ± 0.0007
1.4691 ± 0.0007	C[N+](C)(C)CCO.[Cl-] [choline chloride] + OCCO	–
1.4853 ± 0.0007	C[N+](C)(C)CCO.[Cl-] [choline chloride] + OCC(O)CO	–
–	O=C(O)CC(=O)O [propanedioic acid] + C[N+](C)(C)CCO.[Cl-]	refractive index ([2]; x2 = 0.5): 1.4866 ± 0.0008
